Measurements as given in patent publication US9359373B1, “Lipophilic N-substituted norcantharimide derivatives and uses thereof” (priority 2014, dated 2016).
Read-outs that look alike come from different tables or passages of the source.

Assays:
[1] = system: HepG2 cells; assay: MTT cell viability, HepG2; format: cell-based, human; conditions: Homo sapiens, Mean ± SD
Description: (§1) Cell lines used in the present disclosure include human liver carcinonoma cell line HepG2, human bladder carcinoma cell line BFTC905, human colon carcinoma cell lines HT29 and SW480, and human leukemia cell lines HL60 and Jurkat T, and mouse lymphocytic leukemia cell line L1210. Each cell lines were cultured and maintained in Dulbecco's modified Eagle media (DMEM) or RPMI 1640 medium supplemented with 10% heat inactivated fetal bovine serum (FBS), 1% penicillin/streptomycin, in 5% CO2195% air at 37° C.
(§2) The absorbance of the solution at 540 nm was measured by spectrophotometer. The IC50 values were defined as the drug concentration that inhibit 50% cell growth by setting the viability of untreated cells as 100%. Values were represented as the mean±SD from at least 3 independent experiments.
(§3) Effects of the compounds of formula (I) of this disclosure, specifically, NOC15 and NC 15, on HepG2 cells (liver carcinoma), BFTC905 (bladder carcinoma), HT29 (colon carcinoma), SW480 (colon carcinoma) and HL60 (leukemia) were assessed by cell viability analysis in accordance with procedures described above, in which compound 2, and other known anti-cancer agents including 5-FU, cisplatin and doxorubicin were respectively used as positive controls.
In this example, effects of NOC15 or NC15 on HepG2 cells were assessed by cell viability analysis in accordance with procedures described above, in which compound 2 was used as a positive control.

[2] = system: BFTC905; assay: MTT cell viability, BFTC905; format: cell-based, human; conditions: Homo sapiens, BFTC-905, 48 hours, Mean ± SD, read-out: Growth Inhibition IC50 BFTC905
Description: as §1, §2, §3

[3] = system: SW480; assay: MTT cell viability, SW480; format: cell-based, human; conditions: Homo sapiens, SW480, 48 hours, Mean ± SD, read-out: Growth Inhibition IC50 SW480
Description: as §1, §2, §3

[4] = system: HL60; assay: MTT cell viability, HL60; format: cell-based, human
Description: as §1, §2, §3

[5] = system: HepG2 cells; assay: Hoechst 33528 staining, nuclear morphological changes; format: cell-based, human; conditions: 40 μM, 48 hours, FIG. 1
Description: Staining with Hoechst 33528 was performed according to the method described previously (Huang et al., Cytotechnology 2009, 59, 201-208). Briefly, cells were treated with 40 μM norcantharidin, NOC15, or NC15 for 48 hours, then washed with PBS saline and stained with Hoechst 33528 (Sigma, St. Louis, Mo., USA) at a final concentration of 10 μg/mL. The slides were examined under a fluorescence microscope. Cells with a small nucleus, a high fluorescence intensity (due to chromatin condensation) or nuclear fragmentation were considered apoptotic.
To further investigate the role of apoptosis in the cytotoxicity of NOC15 and NC15, HepG2 cells were incubated with compound 2, NOC15 and NC15, respectively, for 48 hours; then were stained with Hoechst 33528 and examined by fluorescence microscope for any topical morphological changes.

[6] = system: HepG2 cells; assay: Cell cycle distribution by flow cytometry (PI), HepG2; format: cell-based, human; conditions: 48 hours, FIG. 2
Description: (§4) Cultured cells with or without pre-treatment of the compounds of this invention (i.e., norcantharidin, NOC15, or NC15, 10-60 μM for 48 hours) were harvested from the cultured media and fixed by incuating with 75% iced cold ehtanol and kept at −20° C. until analysis. The fixed cells were then washed with PBS, and treated with […] (200 μg/mL, 500 μL) for about 1.5 hour at 37° C. Precipitated cells were collected by centrifugation and re-suspended in a buffer solution containing propidium iodine (PI) (40 μg/ml) and incubated in the dark for 20 min at 20-25° C. before being subject to flow cytometry analysis, where cell numbers at respective cell cycles were determined.
(§5) HepG2 cells were treated with 10-60 μM of the test compounds for 48 hours, then cell cycle distribution and apoptosis analysis was analyzed by flow cytometry, with the subG1 phase being stained with propidium idoine (PI). Results are illustrated in FIGS. 2 and 3.

[7] = system: HepG2 cells; assay: Apoptotic analysis annexin-V/PI flow cytometry; format: cell-based, human; conditions: 10-60 μM, 48 hours, FIG. 3
Description: The percentage of apototic cells was determined according to the manufacturer's protocol by using an annexin-V/FITC kit/propidium iodine (PI) flow cytometer. To facilitate the detection of apoptosis, the treated cells were centrifuged for 5 min at a speed of 1,000×g at room temperature, and then resuspended and washed once with 5 mL PBS before being stained with annexin-V/PI (apoptosis detection kit, R&D Systems, Taipei, Taiwan).
as §5

[8] = system: human leukemia cells (Jurkat T cells); assay: Cell viability (CCK-8), PMAI activated leukemia Jurkat T cells model; format: cell-based; conditions: 24 hours (NC15: 24 and 48 hours), FIG. 4, FIG. 6
Description: (§6) The cell viability assays were performed in 96-well plates. The 100 μl of cell suspensions (NHL or Jurkat T cells, 5×10^3 cells/well, serum-free medium) were inoculated in the wells and the plates were pre-incubated in the incubator for 24 hours (pre-incubated for 22 hours and stimulated with PMA 5 ng/ml plus ionomycin 250 ng/ml for 2 hours in PMAI-treated groups). Then, various concentrations of norcantharidin (0, 2, 4, 15, 30 and 60 μM) or NOC15 (0, 0.25, 0.5, 1, 2 and 4 μM) were added into the culture media in the wells. After 24 hours of incubation, the cell viability of NHL and Jurkat T cells was measured by cell counting kit-8 (CCK-8, Sigma). The half maximal inhibitory concentrations (IC50) of norcantharidin and NOC15 on Jurkat T cells and NHL cells were calculated.
(§7) In this example, a model of phorbol 12-myristate 13-acetate plus ionomycin (PMAI) activated leukemia Jurkat T cells model was employed to investigate the effects of the NOC15 on human leukemia cells (Jurkat T cells) and human lymphoblast cells (NHL).

[9] = system: human lymphoblast cells (NHL); assay: Cell viability (CCK-8), normal lymphoblast cells; format: cell-based; conditions: 24 hours (NC15: 24 and 48 hours), FIG. 4, FIG. 6
Description: as §6, §7

[10] = system: Jurkat T cells; assay: Cell cycle distribution by flow cytometry, Jurkat T cells; format: cell-based, human; conditions: for percentage of cells in subG1 phase: FIG. 5, FIG. 7
Description: as §4
Cell cycle distribution was determined by flow cytometry as described in the “Materials and Methods” section. Results is depicted in FIG. 5.
In this example, Jurkat T cells were treated with or without NC15 (2.513 μM) for 24 or 48 hours before being subject to cell cycle analysis. Results are depicted in FIG. 7.

[11] = system: L1210 cells; assay: Ex vivo growth of leukemia cells (L1210); format: cell-based, mouse; conditions: read-out: concentration suppressing ex vivo growth of L1210 cells for about 50%

## CC(C)=CCCC(C)=CCCC(C)=CCN1C(=O)C2C3CCC(O3)C2C1=O (centres unmarked) [Compound 18, N-farnesyl-7-oxabicyclo[2.2.1]heptane-2,3-dicarboximide]
[1]; HepG2, 24 h, read-out: Growth Inhibition On Hepatic Cancer Cells IC50 24 hrs
  IC50: 19.4 ± 2.1 µM
[1]; HepG2, 48 h, MTT, 48 hours, read-out: Growth Inhibition IC50 HepG2
  IC50: 16.4 ± 1.2 µM
[1]; HepG2, 48 h, read-out: Growth Inhibition On Hepatic Cancer Cells IC50 48 hrs
  IC50: 16.4 ± 1.2 µM
[1]; HepG2, 72 h, read-out: Growth Inhibition On Hepatic Cancer Cells IC50 72 hrs
  IC50: 12.8 ± 2.5 µM
[2]
  IC50: 9.3 ± 0.6 µM
[3]
  IC50: 33.1 ± 1 µM
[4]; Homo sapiens, HL-60, MTT, 48 hours, Mean ± SD, read-out: Growth Inhibition IC50 HL-60
  IC50: 79.8 ± 1.1 µM
[4]; in words, from Table 1
  response of leukemia cell line HL60 to treatment: did respond
[5]
  nuclear morphological changes (apoptosis features): Significant morphological features of apotosis
[6]; 10 μM
  fraction of apoptotic cells (subG1): 3.7%
[6]; 60 μM
  fraction of apoptotic cells (subG1): 19.8%
[6]; 10-60 μM
  accumulation of cells in G2/M phase: inducing the accumulation of cells in G2/M phase
[7]
  percentage of apoptotic cells / cell death: dose-dependent
[8]
  cytotoxicity to leukemia Jurkat T cells: toxic
[9]
  cytotoxicity to normal lymphatic/lymphoblast cells (NHL): did not possess significant cytotoxicity
[10]; 2.513 μM, 48 hours, vs control, FIG. 7D
  number of cells in G0/G1 phase: decreased
[10]; treated 24 hours (NC15 2.513 μM)
  percentage of cells in subG1 phase: started to increase
[10]; treated 48 hours (NC15 2.513 μM)
  percentage of cells in subG1 phase: reached a significant level
[11]; L1210, time not given, listed as NC15
  IC50: ~2.6 µM
[11]; Mus musculus, L1210, L1210, time not given
  IC50: ~1.6 µM
